Data as given in PubChem BioAssay AID1963424 (Molecular Pharmacology Branch, DTP, NCI, 2024).

System: 327498-153-R-J2-PDC complex spheroid growth, % test/control
Experiment: Anticancer human tumor 327498-153-R-J2-PDC patient-derived uterine carcinosarcoma cell line growth inhibition [Asc]
Conditions: for IC50: curve of first compound; for viability, T/C: stronger effect = lower value
Summary of the method: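 Concentration series start at each agent's clinical Cmax, or at 10 microM when none is established, and drop in half-log steps; agents are applied alone or together to complex spheroids built with HUVEC and hMSC.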

[1] = second compound 0.1 µM, first compound 0.00949 µM
[2] = second compound 0.1 µM, first compound 0.03 µM
[3] = second compound 0.1 µM, first compound 0.0949 µM
[4] = second compound 0.1 µM, first compound 0.3 µM
[5] = second compound 0.1 µM, first compound 0.949 µM
[6] = second compound 0.1 µM, first compound 3 µM
[7] = second compound 0.316 µM, first compound 0.00949 µM
[8] = second compound 0.316 µM, first compound 0.03 µM
[9] = second compound 0.316 µM, first compound 0.0949 µM
[10] = second compound 0.316 µM, first compound 0.3 µM
[11] = second compound 0.316 µM, first compound 0.949 µM
[12] = second compound 0.316 µM, first compound 3 µM
[13] = second compound 1 µM, first compound 0.00949 µM
[14] = second compound 1 µM, first compound 0.03 µM
[15] = second compound 1 µM, first compound 0.0949 µM
[16] = second compound 1 µM, first compound 0.3 µM
[17] = second compound 1 µM, first compound 0.949 µM
[18] = second compound 1 µM, first compound 3 µM
[19] = second compound 3.16 µM, first compound 0.00949 µM
[20] = second compound 3.16 µM, first compound 0.03 µM
[21] = second compound 3.16 µM, first compound 0.0949 µM
[22] = second compound 3.16 µM, first compound 0.3 µM
[23] = second compound 3.16 µM, first compound 0.949 µM
[24] = second compound 3.16 µM, first compound 3 µM
[25] = second compound 10 µM, first compound 0.00949 µM
[26] = second compound 10 µM, first compound 0.03 µM
[27] = second compound 10 µM, first compound 0.0949 µM
[28] = second compound 10 µM, first compound 0.3 µM
[29] = second compound 10 µM, first compound 0.949 µM
[30] = second compound 10 µM, first compound 3 µM
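Also: spheroids exposed to compound for 7 days after 3 days of growth.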
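For viability, T/C in this document: 100% = DMSO vehicle control wells.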

Cc1nc(N2CCC3(CC2)COC(C)C3N)c(CO)nc1Sc1ccnc(N)c1Cl (stereo not given) + Cc1c(S(C)(=O)=O)c(-c2cc(F)cc(N3CCN(c4ccc(NS(=O)(=O)c5ccc(NC(CCN6CCC(C(=O)OCCCP(=O)(O)O)CC6)CSc6ccccc6)c(S(=O)(=O)C(F)(F)F)c5)cc4)CC3)c2)c(-c2ccc(Cl)cc2)n1C(C)C
IC50 (second compound 0.1 µM): 1560 nM
IC50 (second compound 0.316 µM): 625 nM
IC50 (second compound 1 µM): 594 nM
IC50 (second compound 3.16 µM): 829 nM
IC50 (second compound 10 µM): > 3000 nM
viability, T/C [1]: 98.7%
viability, T/C [2]: 90.4%
viability, T/C [3]: 83.8%
viability, T/C [4]: 65.8%
viability, T/C [5]: 54.8%
viability, T/C [6]: 44.5%
viability, T/C [7]: 94.9%
viability, T/C [8]: 94.2%
viability, T/C [9]: 70.2%
viability, T/C [10]: 59.5%
viability, T/C [11]: 46.6%
viability, T/C [12]: 38.9%
viability, T/C [13]: 95.3%
viability, T/C [14]: 93.6%
viability, T/C [15]: 68.6%
viability, T/C [16]: 58.4%
viability, T/C [17]: 47.1%
viability, T/C [18]: 38.3%
viability, T/C [19]: 98%
viability, T/C [20]: 92%
viability, T/C [21]: 65.1%
viability, T/C [22]: 64.6%
viability, T/C [23]: 47%
viability, T/C [24]: 42.5%
viability, T/C [25]: 179%
viability, T/C [26]: 178%
viability, T/C [27]: 145%
viability, T/C [28]: 142%
viability, T/C [29]: 138%
viability, T/C [30]: 117%

Cn1ncnc1[C@H]1c2n[nH]c(=O)c3cc(F)cc(c23)N[C@@H]1c1ccc(F)cc1 + Cc1c(S(C)(=O)=O)c(-c2cc(F)cc(N3CCN(c4ccc(NS(=O)(=O)c5ccc(NC(CCN6CCC(C(=O)OCCCP(=O)(O)O)CC6)CSc6ccccc6)c(S(=O)(=O)C(F)(F)F)c5)cc4)CC3)c2)c(-c2ccc(Cl)cc2)n1C(C)C
IC50 (second compound 0.1 µM): 10.9 nM
IC50 (second compound 0.316 µM): 11.4 nM
IC50 (second compound 1 µM): 7.37 nM
IC50 (second compound 3.16 µM): 8.06 nM
IC50 (second compound 10 µM): 10.3 nM
viability, T/C (second compound 0.1 µM, first compound 0.000316 µM): 103%
viability, T/C (second compound 0.1 µM, first compound 0.001 µM): 97.1%
viability, T/C (second compound 0.1 µM, first compound 0.00316 µM): 89.5%
viability, T/C (second compound 0.1 µM, first compound 0.01 µM): 51.4%
viability, T/C (second compound 0.1 µM, first compound 0.0316 µM): 19.3%
viability, T/C (second compound 0.1 µM, first compound 0.1 µM): 7.05%
viability, T/C (second compound 0.316 µM, first compound 0.000316 µM): 92.6%
viability, T/C (second compound 0.316 µM, first compound 0.001 µM): 84.5%
viability, T/C (second compound 0.316 µM, first compound 0.00316 µM): 86.9%
viability, T/C (second compound 0.316 µM, first compound 0.01 µM): 54%
viability, T/C (second compound 0.316 µM, first compound 0.0316 µM): 14.9%
viability, T/C (second compound 0.316 µM, first compound 0.1 µM): 6.5%
viability, T/C (second compound 1 µM, first compound 0.000316 µM): 99.3%
viability, T/C (second compound 1 µM, first compound 0.001 µM): 104%
viability, T/C (second compound 1 µM, first compound 0.00316 µM): 81.7%
viability, T/C (second compound 1 µM, first compound 0.01 µM): 37.7%
viability, T/C (second compound 1 µM, first compound 0.0316 µM): 15.3%
viability, T/C (second compound 1 µM, first compound 0.1 µM): 5.39%
viability, T/C (second compound 3.16 µM, first compound 0.000316 µM): 92.7%
viability, T/C (second compound 3.16 µM, first compound 0.001 µM): 91.6%
viability, T/C (second compound 3.16 µM, first compound 0.00316 µM): 80.3%
viability, T/C (second compound 3.16 µM, first compound 0.01 µM): 42.2%
viability, T/C (second compound 3.16 µM, first compound 0.0316 µM): 14.9%
viability, T/C (second compound 3.16 µM, first compound 0.1 µM): 4.76%
viability, T/C (second compound 10 µM, first compound 0.000316 µM): 174%
viability, T/C (second compound 10 µM, first compound 0.001 µM): 178%
viability, T/C (second compound 10 µM, first compound 0.00316 µM): 150%
viability, T/C (second compound 10 µM, first compound 0.01 µM): 50.1%
viability, T/C (second compound 10 µM, first compound 0.0316 µM): 18.2%
viability, T/C (second compound 10 µM, first compound 0.1 µM): 5.74%

CCN1C(C(=O)NC23CCC(C(=O)O)(CC2)CC3)C(c2cccc(Cl)c2F)C2(C(=O)Nc3cc(Cl)ccc32)C12CCCCC2 (stereo not given) + Cc1c(S(C)(=O)=O)c(-c2cc(F)cc(N3CCN(c4ccc(NS(=O)(=O)c5ccc(NC(CCN6CCC(C(=O)OCCCP(=O)(O)O)CC6)CSc6ccccc6)c(S(=O)(=O)C(F)(F)F)c5)cc4)CC3)c2)c(-c2ccc(Cl)cc2)n1C(C)C
IC50 (second compound 0.1 µM): 147 nM
IC50 (second compound 0.316 µM): 136 nM
IC50 (second compound 1 µM): 106 nM
IC50 (second compound 3.16 µM): 122 nM
IC50 (second compound 10 µM): 172 nM
viability, T/C [1]: 92.5%
viability, T/C [2]: 84.5%
viability, T/C [3]: 64.8%
viability, T/C [4]: 26.6%
viability, T/C [5]: 6.43%
viability, T/C [6]: 2%
viability, T/C [7]: 87.4%
viability, T/C [8]: 89%
viability, T/C [9]: 64.4%
viability, T/C [10]: 17%
viability, T/C [11]: 8.41%
viability, T/C [12]: 2.1%
viability, T/C [13]: 91.4%
viability, T/C [14]: 94.5%
viability, T/C [15]: 50.6%
viability, T/C [16]: 17.8%
viability, T/C [17]: 4.84%
viability, T/C [18]: 1.36%
viability, T/C [19]: 78.9%
viability, T/C [20]: 79%
viability, T/C [21]: 56.1%
viability, T/C [22]: 23.8%
viability, T/C [23]: 6.76%
viability, T/C [24]: 1.6%
viability, T/C [25]: 166%
viability, T/C [26]: 162%
viability, T/C [27]: 80.9%
viability, T/C [28]: 23.5%
viability, T/C [29]: 9.14%
viability, T/C [30]: 1.51%
